The record followed here is the Deep4Chem optical property database.

A short description of this data set: solvent given as SMILES.
Where [1] appears, read: in O=P(c1ccccc1)(c1ccccc1)c1ccccc1Oc1ccccc1P(=O)(c1ccccc1)c1ccccc1.

In the case of `CCN(CC)c1ccc2nc3c4ccccc4c(=O)cc-3oc2c1`, the fluorescence lifetime (in C1CCCCC1) amounted to 2.76 ns; the fluorescence lifetime (in C1COCCO1) came to 4.5 ns; the fluorescence lifetime (in CC1COC(=O)O1) was 4.4 ns; the fluorescence lifetime (in CC#N) is 4.7 ns; the fluorescence lifetime (in CC(C)=O) is 4.66 ns; the fluorescence lifetime (in CC(C)O) stood at 4.1 ns. The fluorescence lifetime worked out at 4.54 ns (in CCCC#N); 4.19 ns (in CCCCCCCCCCO); 3.95 ns (in CCCCCO); 3.91 ns (in CCCCO); 4.15 ns (in CCCCOCCCC); 3.8 ns (in CCCO). The fluorescence lifetime runs as follows: (in CCO) 3.65 ns; (in CCOC(C)=O) 4.53 ns; (in CCOCC) 4.45 ns; (in CN(C)C=O) 4.35 ns; (in CO) 2.8 ns; (in ClC(Cl)(Cl)Cl) 4.1 ns. Further, the fluorescence lifetime is 4.48 ns (in ClCCl); 0.94 ns (in OC(C(F)(F)F)C(F)(F)F); 1.76 ns (in OCC(F)(F)F); 1.95 ns (in OCC(O)CO); 2.5 ns (in OCCO); 4.2 ns (in [2H]OC). Further, the fluorescence lifetime (in [2H]OCC) was 4.56 ns.

With `C#CCN1C(=O)/C(=C/c2cc(OC(C)C)ccc2OC(C)C)N=C1C`, the fluorescence lifetime reads like this: (in C1COCCO1) 1.66 ns; (in CC#N) 2.22 ns; (in CC(C)=O) 2.17 ns; (in CCCCCC) 0.89 ns; (in CCCCO) 0.82 ns; (in CCCO) 0.85 ns. For the same molecule, the fluorescence lifetime (in CCO) stood at 1 ns; the fluorescence lifetime (in CCOC(C)=O) was 1.5 ns; the fluorescence lifetime (in CN(C)C=O) stood at 2.62 ns; the fluorescence lifetime (in CO) was 1.1 ns; the fluorescence lifetime (in CS(C)=O) was 3.03 ns.

For `COc1ccc(-c2cnc3nn4ccccc4c3c2)cc1`, the fluorescence lifetime (in C1CCOC1) was 4.8 ns.

`c1ccc([B-]2(c3ccccc3)Oc3ccc4ccccc4c3-c3c4ccccc4cn[n+]32)cc1` gave a fluorescence lifetime (in Cc1ccccc1) of 9.32 ns.

As to `COc1cc(OC)c2c(c1)C(=O)c1cc(OC)cc(OC)c1-2`, the fluorescence lifetime (in C1CCCCC1) was found to be 0.8 ns.

With `CC[n+]1nc2cc3c4c(c2c2cc(F)ccc21)CCCN4CCC3`, the fluorescence lifetime (in O) is 4.4 ns.

For `F[B-]1(F)OC(c2ccc(Br)cc2)=Cc2c3ccccc3c3ccccc3[n+]21`, the fluorescence lifetime (in ClC(Cl)Cl) is 0.436 ns.

Regarding `CCC1(CC)c2cc(C#Cc3cccs3)ccc2-c2c1c1c(c3c2C(CC)(CC)c2cc(C#Cc4cccs4)ccc2-3)C(CC)(CC)c2cc(C#Cc3cccs3)ccc2-1`, the fluorescence lifetime (in C1CCOC1) was 1.5 ns.

For `C(=C\c1ccnc2ccccc12)/c1c2ccccc2cc2ccccc12`, the fluorescence lifetime by setting is: (in CC1CCCCC1) 2.6 ns; (in CC#N) 0.088 ns.

Take `N#C/C(=C\c1ccc(C#N)cc1)c1nc(-c2ccccc2)c(-c2ccccc2)s1`: the fluorescence lifetime (in CC#N) came to 3.2 ns.

On to `CC(C)(C)c1ccc(/C=C/c2ccc(N(c3ccc(/C=C/c4ccc(C(C)(C)C)cc4)cc3)c3ccc(-c4nc5ccccc5nc4-c4ccc(N(c5ccc(/C=C/c6ccc(C(C)(C)C)cc6)cc5)c5ccc(/C=C/c6ccc(C(C)(C)C)cc6)cc5)cc4)cc3)cc2)cc1`, for which the fluorescence lifetime (in C1CCOC1) stood at 2.3 ns.

Turning to `Cc1cc(-c2nnc(-c3c(C(C)C)cc(C(C)C)cc3C(C)C)o2)ccc1-n1c2ccccc2c2ccccc21`, for the setting “in CCO”, the fluorescence lifetime worked out at 1.49 ns.

`Cn1c(=O)cc(C(=O)c2ccccc2)c2sc(-c3ccc(N(c4ccccc4)c4ccccc4)cc3)cc21` had a fluorescence lifetime (in ClCCl) of 0.99 ns.

For `N#Cc1ccc(-c2ccc3c(c2)c2cc(-c4ccc(C#N)cc4)ccc2c2c3nc(-c3ccc(-c4ccc(N(c5ccccc5)c5ccccc5)cc4)cc3)n2-c2ccccc2)cc1`, the fluorescence lifetime is, setting by setting: (in C1CCOC1) 1.51 ns; (in CC#N) 2.86 ns; (in CCCCCC) 1.04 ns; (in CCOCC) 1.29 ns.

Under “in ClC(Cl)Cl”, `CCCCn1c(=O)c2cc3ccc4cccc5ccc(c2c1=O)c3c45` registered a fluorescence lifetime of 5.48 ns.

Turning to `N#Cc1ccc(C2=Cc3ccccc3P2(=O)c2ccccc2)cc1` (stereo unspecified), the fluorescence lifetime (in ClCCl) came out at 4.8 ns.

`Cc1c(C)c(B(c2c(C)c(C)c(C#N)c(C)c2C)c2c(C)c(C)c(N3c4ccccc4Oc4ccccc43)c(C)c2C)c(C)c(C)c1C#N` registered a fluorescence lifetime (in c1ccc([Si](c2ccccc2)(c2ccc(-n3c4ccccc4c4ccccc43)cc2)c2ccc(-n3c4ccccc4c4ccccc43)cc2)cc1) of 32 ns.

As for `CC(C)c1cccc(C(C)C)c1N1C(=O)c2cccc3c(Oc4ccc(Cl)cc4)ccc(c23)C1=O`, the fluorescence lifetime (in ClCCl) was determined as 3.95 ns.

On to `Cc1ccc(-c2cc(-c3ccccc3Cl)c3c(N)nc(N4CCCC4)c(C#N)c3n2)cc1`, for which the fluorescence lifetime was determined as 11.3 ns (in CC#N); 11.1 ns (in CC(C)=O); 11.3 ns (in CC(C)O); 9.7 ns (in CO); 13.7 ns (in ClC(Cl)Cl); 13.7 ns (in ClCCl). The same molecule came in with a fluorescence lifetime (in c1ccccc1) of 12.8 ns.

`O=C(c1ccc(-n2c3ccccc3c3ccccc32)cc1)c1ccc(-n2c3ccccc3c3ccccc32)cc1` came in with a fluorescence lifetime under setting [1] of 59 ns.

Under “in ClCCl”, `COc1ccc(-c2c3ccccc3c(C#Cc3ccccc3)c3ccccc23)cc1` had a fluorescence lifetime of 2.8 ns.

Regarding `F[B-]1(F)OC(C#Cc2ccccc2)=C2CCc3ccccc3C2=[O+]1`, the fluorescence lifetime (in ClCCl) is 2.79 ns.

For the setting “in C1CCOC1”, `C(=C\c1cc2ccccc2c2ccccc12)/c1c2ccccc2cc2ccccc12` showed a fluorescence lifetime of 4.63 ns.

For the setting “in Cc1ccccc1”, `CC1=C(c2cccs2)C(C)=[N+]2C1=C(c1ccccc1)c1c(C)c(-c3cccs3)c(C)n1[B-]2(F)F` displayed a fluorescence lifetime of 3.4 ns.

`c1ccc(N2N=C(c3cccc4ccccc34)CC2c2ccc3ccc4cccc5ccc2c3c45)cc1` (stereo unspecified): the fluorescence lifetime (in ClCCl) was 2.01 ns.

As to `c1ccc2c(c1)Oc1ccccc1N2c1ccc(-c2nnc(-c3ccc(N4c5ccccc5Oc5ccccc54)cc3)o2)cc1`, the fluorescence lifetime (in Cc1ccccc1) came out at 21.2 ns and the fluorescence lifetime under setting [1] came to 11.2 ns.

Turning to `COc1ccc(N(c2ccccc2)c2cc3ccc4cc(N(c5ccccc5)c5ccc(OC)cc5)cc5ccc(c2)c3c45)cc1`, for the setting “in Cc1ccccc1”, the fluorescence lifetime is 18 ns.

For the molecule `CN(C)c1ccc(/C=C/c2cc[n+](Cc3cc(C[n+]4ccc(/C=C/c5ccc(N(C)C)cc5)cc4)cc(C[n+]4ccc(/C=C/c5ccc(N(C)C)cc5)cc4)c3)cc2)cc1`, the fluorescence lifetime runs as follows: (in CCCCCCCCO) 0.64 ns; (in CCO) 0.06 ns; (in CO) 0.04 ns; (in ClC(Cl)Cl) 0.64 ns; (in ClCCl) 0.32 ns.

Take `CC(C)(C)N1C(=O)c2c(cc3ccc4cccc5ccc2c3c45)C1O` (stereo unspecified): under “in ClC(Cl)Cl”, the fluorescence lifetime came to 4.93 ns.

Molecule `COc1ccc2ccc([O-])cc2c1` returned a fluorescence lifetime (in O) of 4 ns.

Regarding `CCOC(=O)c1ccc2c(c1)[se]c1c3ccc(C(=O)OCC)cc3n(C)c21`, the fluorescence lifetime (in CCCO) worked out at 0.175 ns.

Consider `COc1cccc2c1C(=O)c1ccccc1-2`, for which the fluorescence lifetime by setting is: (in CC#N) 2.1 ns; (in CC(C)O) 8.52 ns; (in CCCCO) 7.27 ns; (in CCCO) 6.93 ns; (in CCO) 5.98 ns; (in CO) 3.82 ns.

With `COc1cc(OC)c2cc(C#N)c(=N)oc2c1`, for the setting “in ClCCl”, the fluorescence lifetime is 2.4 ns.

In the case of `CC1(C)CC(/N=C/c2ccc3ccc4cccc5ccc2c3c45)CC(C)(C)N1[O]`, the fluorescence lifetime (in C1CCCCC1) was 8.3 ns and the fluorescence lifetime (in CO) was determined as 2.1 ns.

For `C[Si](C)(C)c1ccc(-c2ccc(-c3ccc(-c4ccc(-c5ccc([Si](C)(C)C)s5)s4)c4nsnc34)s2)s1`, the fluorescence lifetime (in C1CCOC1) was determined as 5.8 ns.

With `ClP1(Cl)=NP(Cl)(Cl)=NP(Cl)(Oc2ccc3ccc4cccc5ccc2c3c45)=N1` (stereo unspecified), the fluorescence lifetime (in ClCCl) stood at 3.29 ns.

As to `CN(C)c1ccc(-c2nc3c(c4c2-c2ccccc2CC4)-c2ccccc2CC3)cc1`, the fluorescence lifetime worked out at 0.91 ns (in C1CCOC1); 1.19 ns (in CC#N); 0.75 ns (in CCOC(C)=O); 2.13 ns (in CS(C)=O); 0.27 ns (in Cc1ccccc1); 0.8 ns (in ClCCl).

`CNc1cccc2c1C(=O)c1ccccc1C2=O`: the fluorescence lifetime is, setting by setting: (in C1CCC2CCCCC2C1) 0.446 ns; (in C1CCCCC1) 0.443 ns; (in CC1CCCCC1) 0.445 ns; (in CC#N) 0.204 ns; (in CCC(C)CC) 0.444 ns; (in CCCCCC) 0.451 ns. In addition, the fluorescence lifetime (in CCOC(C)=O) was 0.253 ns.

As for `CCOC(=O)C(C(=O)OCC)C1=[N+]2C(=C(c3ccc(C)cc3)c3ccc(Cl)n3[B-]2(F)F)C=C1`, the fluorescence lifetime (in C1CCCCC1) came out at 2.69 ns; the fluorescence lifetime (in C1CCOC1) was determined as 2.5 ns; the fluorescence lifetime (in CCOC(C)=O) worked out at 2.31 ns; the fluorescence lifetime (in CO) was 2.02 ns; the fluorescence lifetime (in Cc1ccccc1) was determined as 3.63 ns; the fluorescence lifetime (in ClC(Cl)Cl) came out at 3.67 ns.

Regarding `COc1ccc(-c2nc3ccccc3nc2/C=C/N2CCCC2)s1`, the fluorescence lifetime by setting is: (in C1CCCCC1) 0.79 ns; (in C1CCOC1) 2.79 ns; (in CC#N) 5.78 ns; (in CC(C)=O) 5.1 ns; (in CCO) 0.67 ns; (in CO) 0.22 ns. In addition, the fluorescence lifetime (in CS(C)=O) amounted to 4.88 ns, the fluorescence lifetime (in Cc1ccccc1) was determined as 1.25 ns and the fluorescence lifetime (in ClCCl) is 3.28 ns.

`Cc1ccc2c(c1)C1(c3ccccc3Oc3ccccc31)c1cc(C)ccc1N2c1ccc(-c2ncccn2)cc1`: the fluorescence lifetime (in O=P(c1ccccc1)(c1ccccc1)c1ccc2oc3ccc(P(=O)(c4ccccc4)c4ccccc4)cc3c2c1) came to 11 ns.

`COc1cccc2cc(C#N)c(=N)oc12` had a fluorescence lifetime (in ClCCl) of 0.4 ns.

For the molecule `c1cc2c3ccc[n+]4cccc(c5ccc[n+](c1)c25)c34`, the fluorescence lifetime is, setting by setting: (in CC#N) 7.4 ns; (in CS(C)=O) 4.4 ns; (in C[N+](=O)[O-]) 6.2 ns; (in O) 6.8 ns.

The molecule `c1ccc(-c2cc3cccc[n+]3[b-]3ccc(-c4cc[b-]5c(c4)c(-c4ccccc4)cc4cccc[n+]54)cc32)cc1` gave a fluorescence lifetime (in C1CCCCC1) of 4 ns.
